Measurements as given in US20220033397A1, “PHARMACEUTICAL COMPOUNDS AND THEIR USE AS INHIBITORS OF UBIQUITIN SPECIFIC PROTEASE 19 (USP19)” (ALMAC DISCOVERY LIMITED, priority 2018, published 2022).

What follows are molecules tested against T1, Full-length USP19 (Homo sapiens, UniProt O94966) (assay: USP19 fluorescence polarisation (FP) homogeneous assay with Ubiquitin-Lys-TAMRA substrate). Settings: 2.5 nM USP19, 30 min pre-incubation, average of at least two duplicate experiments.
T1 construct: Full-length USP19 was purchased from Boston Biochem (E-576); purchased Boston Biochem E-576
T1 sequence (O94966 1-1318): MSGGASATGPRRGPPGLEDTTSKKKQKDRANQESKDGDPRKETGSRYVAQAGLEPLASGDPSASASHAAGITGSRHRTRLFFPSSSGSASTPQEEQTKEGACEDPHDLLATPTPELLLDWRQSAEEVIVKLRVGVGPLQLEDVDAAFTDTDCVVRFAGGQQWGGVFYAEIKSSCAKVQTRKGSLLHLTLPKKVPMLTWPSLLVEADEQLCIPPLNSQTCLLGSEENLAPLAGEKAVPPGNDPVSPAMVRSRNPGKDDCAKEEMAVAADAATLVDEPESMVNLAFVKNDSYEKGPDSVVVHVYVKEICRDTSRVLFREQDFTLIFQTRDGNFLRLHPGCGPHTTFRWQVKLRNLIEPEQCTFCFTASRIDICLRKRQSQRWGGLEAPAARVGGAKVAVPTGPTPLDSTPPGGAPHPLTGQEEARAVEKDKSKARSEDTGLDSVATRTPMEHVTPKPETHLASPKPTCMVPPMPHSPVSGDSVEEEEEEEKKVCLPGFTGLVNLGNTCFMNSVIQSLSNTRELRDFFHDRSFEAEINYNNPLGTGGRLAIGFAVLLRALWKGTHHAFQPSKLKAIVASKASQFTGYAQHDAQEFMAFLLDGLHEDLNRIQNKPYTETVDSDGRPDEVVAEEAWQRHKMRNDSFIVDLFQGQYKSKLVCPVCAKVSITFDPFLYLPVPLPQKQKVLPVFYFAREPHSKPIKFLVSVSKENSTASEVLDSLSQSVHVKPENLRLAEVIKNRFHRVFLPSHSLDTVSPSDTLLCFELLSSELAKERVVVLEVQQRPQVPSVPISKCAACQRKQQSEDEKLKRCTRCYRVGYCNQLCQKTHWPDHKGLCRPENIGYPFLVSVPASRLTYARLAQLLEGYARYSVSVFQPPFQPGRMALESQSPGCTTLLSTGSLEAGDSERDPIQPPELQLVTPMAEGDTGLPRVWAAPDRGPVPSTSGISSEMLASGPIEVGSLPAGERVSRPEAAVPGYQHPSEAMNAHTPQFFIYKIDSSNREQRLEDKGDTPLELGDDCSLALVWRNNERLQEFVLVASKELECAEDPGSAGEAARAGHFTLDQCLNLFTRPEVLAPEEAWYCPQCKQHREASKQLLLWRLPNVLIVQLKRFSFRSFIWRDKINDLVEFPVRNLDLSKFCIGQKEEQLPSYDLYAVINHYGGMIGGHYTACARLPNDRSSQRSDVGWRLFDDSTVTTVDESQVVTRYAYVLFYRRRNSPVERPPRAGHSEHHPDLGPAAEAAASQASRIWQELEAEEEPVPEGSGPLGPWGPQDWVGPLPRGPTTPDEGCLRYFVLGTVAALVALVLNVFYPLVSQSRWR
Type: biochemical
Procedure, shortened: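 Full-length USP19 preincubated 30 min at RT with inhibitor (200 μM to 2 μM series, 8–18 points) before adding 500 nM Ubiquitin-Lys-TAMRA substrate.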

| SMILES | IC50 |
| --- | --- |
| O=C(N1CC[C@@](O)(Cn2cnc(-c3cccc(F)c3F)cc2=O)C2(CCCC2)C1)N1CCNC[C@H]1c1ccccc1 [Example 385, 6-(2,3-Difluoro-phenyl)-3-(((S)-10-hydroxy-7-((R)-2-phenylpiperazine-1-carbonyl)-7-aza-spiro[4.5]decan-10-yl)methyl)pyrimidin-4(3H)-one] | < 500 nM |
| Cc1cccc(-c2cc(=O)n(C[C@]3(O)CCN(C(=O)N4CCNC[C@H]4c4cc(F)ccc4F)CC34CCCC4)cn2)c1 [Example 386, 3-(((S)-7-((R)-2-(2,5-Difluorophenyl)piper-azine-1-carbonyl)-10-hydroxy-7-azaspiro[4.5]decan-10-yl)methyl)-6-(m-tolyl)pyrimidin-4(3H)-one] | < 500 nM |
| O=C(N1CC[C@@](O)(Cn2cnc(-c3ccccc3F)cc2=O)C2(CCCC2)C1)N1CCNC[C@H]1c1cc(F)ccc1F [Example 387, 3-(((S)-7-((R)-2-(2,5-Difluorophenyl)piper-azine-1-carbonyl)-10-hydroxy-7-azaspiro[4.5]decan-10-yl)methyl)-6-(2-fluorophenyl)pyrimi-din-4(3H)-one] | < 500 nM |
| COc1ccccc1-c1cc(=O)n(C[C@]2(O)CCN(C(=O)N3CCNC[C@H]3c3cc(F)ccc3F)CC23CCCC3)cn1 [Example 388, 3-(((S)-7-((R)-2-(2,5-Difluoro-phenyl)piperazine-1-carbonyl)-10-hydroxy-7-azaspiro [4.5]decan-10-yl)methyl)-6-(2-meth-oxyphenyl)pyrimi-din-4(3H)-one] | < 500 nM |
| O=C(N1CC[C@@](O)(Cn2cnc(N3CC4CC4C3)cc2=O)C2(CCCC2)C1)N1CCNC[C@H]1c1cc(F)ccc1F (stereo partly drawn) [Example 389, 6-(3-Aza-bicyclo[3.1.0]hexan-3-yl)-3-(((S)-7-((R)-2-(2,5-difluoro-phenyl)piperazine-1-carbonyl)-10-hydroxy-7-aza-spiro[4.5]decan-10-yl)methyl)pyrimidin-4(3H)-one] | < 500 nM |
| C[C@@]1(c2ccccc2)CNCCN1C(=O)N1CC[C@@](O)(Cn2cnc(-c3ccccc3)cc2=O)C2(CCCC2)C1 [Example 390, 3-(((S)-10-Hydroxy-7-((R)-2-methyl-2-phenylpiperazine-1-carbonyl)-7-azaspiro[4.5]decan-10-yl)methyl)-6-phenylpyrimidin-4(3H)-one] | < 500 nM |
| O=C(N1CC[C@@](O)(Cn2ccc(-c3ccccc3F)cc2=O)C2(CCCC2)C1)N1CCNC[C@H]1c1cccc(F)c1 [Example 391, 4-(2-Fluorophenyl)-1-(((S)-7-((R)-2-(3-fluorophenyl)pipera-zine-1-carbonyl)-10-hydroxy-7-azaspiro[4.5]decan-10-yl)methyl)pyri-din-2(1H)-one] | < 500 nM |
| O=C(N1CC[C@@](O)(Cn2cnc(-c3ccccc3F)cc2=O)C2(CCCC2)C1)N1CCNC[C@H]1c1cc(F)cc(F)c1 [Example 392, 3-(((S)-7-((R)-2-(3,5-Difluoro-phenyl)piper-azine-1-carbonyl)-10-hydroxy-7-azaspiro[4.5]decan-10-yl)methyl)-6-(2-fluorophenyl)pyrimi-din-4(3H)-one] | < 500 nM |
| O=C(N1CC[C@@](O)(Cn2cnc(-c3ccccc3)cc2=O)C2(CCCC2)C1)N1CCSC[C@H]1c1cc(F)ccc1F [Example 393, 3-(((S)-7-((R)-3-(2,5-Difluorophenyl)thio-morpholine-4-carbo-nyl)-10-hydroxy-7-azaspiro[4.5]decan-10-yl)methyl)-6-phenylpyrimidin-4(3H)-one] | < 500 nM |
| O=C(N1CC[C@@](O)(Cn2cnc(-c3ccccc3)cc2=O)C2(CCCC2)C1)N1CCS(=O)(=O)C[C@H]1c1cc(F)ccc1F [Example 394, 3-(((S)-7-((R)-3-(2,5-Difluoro-phenyl)-1,1-dioxidothio-morpholine-4-carbonyl)-10-hydroxy-7-aza-spiro[4.5]decan-10-yl)methyl)-6-phenylpyrimidin-4(3H)-one] | < 500 nM |
| N[C@H]1CCN(C(=O)N2CC[C@@](O)(Cn3cnc(-c4ccccc4)cc3=O)C3(CCCC3)C2)[C@H](c2ccccc2)C1 [Example 396, 3-(((S)-7-((2S,4S)-4-Amino-2-phenyl-piperidine-1-car-bonyl)-10-hydroxy-7-azaspiro[4.5]de-can-10-yl)meth-yl)-6-phenyl-pyrimidin-4(3H)-one] | < 500 nM |
| N[C@@H]1CCN(C(=O)N2CC[C@@](O)(Cn3cnc(-c4ccccc4)cc3=O)C3(CCCC3)C2)[C@H](c2ccccc2)C1 [Example 397, 3-(((S)-7-((2S,4R)-4-Amino-2-phenyl-piperidine-1-carbo-nyl)-10-hydroxy-7-azaspiro[4.5]decan-10-yl)methyl)-6-phenylpyrimidin-4(3H)-one] | < 500 nM |

Results, then the molecule that gave them:

| IC50 | SMILES |
| --- | --- |
| < 500 nM | O=C(N1CC[C@@](O)(Cn2cnc(C3CC3)cc2=O)C2(CCCC2)C1)N1CCNC[C@H]1c1cc(F)ccc1F [Example 378, 6-Cyclopropyl-3-(((S)-7-((R)-2-(2,5-difluorophenyl)piper-azine-1-carbonyl)-10-hydroxy-7-aza-spiro[4.5]decan-10-yl)methyl)pyrimidin-4(3H)-one] |
| < 500 nM | O=C(N1CC[C@@](O)(Cn2cnc(-c3ccccc3)cc2=O)C2(CCCC2)C1)N1CCNCC1c1ccc(F)c(F)c1 (stereo partly drawn) [Example 379, 3-(((10S)-7-(2-(3,4-Difluorophenyl)piper-azine-1-carbonyl)-10-hydroxy-7-azaspiro[4.5]decan-10-yl)methyl)-6-phenylpyrimidin-4(3H)-one] |
| < 500 nM | COc1cccc(F)c1-c1cc(=O)n(C[C@]2(O)CCN(C(=O)N3CCNC[C@H]3c3ccccc3)CC23CCCC3)cn1 [Example 381, 6-(2-Fluoro-6-meth-oxyphenyl)-3-(((S)-10-hydroxy-7-((R)-2-phenylpiperazine-1-carbonyl)-7-aza-spiro[4.5]decan-10-yl)methyl)pyrimidin-4(3H)-one] |
| < 500 nM | Cc1cccc(F)c1-c1cc(=O)n(C[C@]2(O)CCN(C(=O)N3CCNC[C@H]3c3ccccc3)CC23CCCC3)cn1 [Example 382, 6-(2-Fluoro-6-meth-ylphenyl)-3-(((S)-10-hydroxy-7-((R)-2-phenylpiperazine-1-carbonyl)-7-aza-spiro[4.5]decan-10-yl)methyl)pyrimidin-4(3H)-one] |
| < 500 nM | COc1c(F)cccc1-c1cc(=O)n(C[C@]2(O)CCN(C(=O)N3CCNC[C@H]3c3ccccc3)CC23CCCC3)cn1 [Example 383, 6-(3-Fluoro-2-methoxyphenyl)-3-(((S)-10-hydroxy-7-((R)-2-phenyl-piperazine-1-carbonyl)-7-aza-spiro[4.5]decan-10-yl)methyl)pyrimidin-4(3H)-one] |
| < 500 nM | COc1ccc(F)cc1-c1cc(=O)n(C[C@]2(O)CCN(C(=O)N3CCNC[C@H]3c3ccccc3)CC23CCCC3)cn1 [Example 384, 6-(5-Fluoro-2-methoxyphenyl)-3-(((S)-10-hydroxy-7-((R)-2-phenylpipera-zine-1-carbonyl)-7-azaspiro[4.5]decan-10-yl)methyl)pyrimi-din-4(3H)-one] |
